Measurements taken from patent US20090163540A1, “Quinine Sulfate Polymorphs, Processes of Preparing, Compositions and Uses Thereof” (priority 2007, published 2009).
Counter-ions that a name gives are not always drawn.

Key:
[1] = Variable-temperature XRPD (solid form on heating); assay type: physicochemical
Experimental: In addition to XRPD, quinine sulfate polymorph A is analyzed by DSC, TGA, moisture balance (MB), post-MB XRPD, hotstage microscopy (HSM), Karl Fischer (KF) and variable temperature X-ray powder diffraction (VT-XRPD); a summary of the analyses is provided in Table 11b. Variable-temperature XRPD is performed on a Shimadzu XRD-6000 X-ray powder diffractometer equipped with an Anton Paar HTK 1200 high temperature stage. The sample is packed in a ceramic holder and analyzed from 2.5 to 40 °2θ at 3°/min (0.4 sec/0.02° step). A silicon standard is analyzed to check the instrument alignment. Temperature calibration is performed using vanillin and sulfapyridine standards. Data are collected and analyzed using XRD-6000 v. 4.1.

[2] = Moisture balance (moisture sorption/desorption, 5% to 95% RH) with post-MB XRPD; assay type: physicochemical
Experimental: In addition to XRPD, quinine sulfate polymorph A is analyzed by DSC, TGA, moisture balance (MB), post-MB XRPD, hotstage microscopy (HSM), Karl Fischer (KF) and variable temperature X-ray powder diffraction (VT-XRPD); a summary of the analyses is provided in Table 11b. Moisture sorption/desorption data are collected on a VTI SGA-100 Vapor Sorption Analyzer. Sorption and desorption data are collected over a range of 5% to 95% relative humidity (RH) at 10% RH intervals. Samples are not dried prior to analysis. Equilibrium criteria used for analysis are less than 0.0100% weight change in 5 minutes, with a maximum equilibration time of 3 hours if the weight criterion is not met. Data are not corrected for the initial moisture content of the samples. Sodium chloride and polyvinylpyrrolidone are used as calibration standards.

## C=C[C@H]1C[N@@]2CC[C@H]1C[C@H]2[C@H](O)c1ccnc2ccc(OC)cc12 [Form A, quinine sulfate]
[1]; 40° C. (listed after 110° C.)
  VT-XRPD form: 40° C.: Form A
[1]; 50° C.
  VT-XRPD form: 50° C.: Form A
[1]; 75° C.
  VT-XRPD form: 75° C.: Form A
[1]; 110° C.
  VT-XRPD form: 110° C.: Pattern D
[1]; ambient temp
  VT-XRPD form: ambient temp: Form A
[2]; solid form after moisture balance
  post-MB XRPD form: Form A
[2]; sorption/desorption 5% to 95% RH at 10% RH intervals
  MB (moisture balance) result: non-hygroscopic
